Where two headings read alike, the source gives them in different places.
CC(=O)O.CN1CCN(c2nc(C3=C(c4c[nH]c5ccccc45)C(=O)NC3=O)c3ccccc3n2)CC1 [Form B, 3-(1.H.-indol-3-yl)-4-[2-(4-methyl-piperazin-1-yl)-quinazolin-4-yl]-pyrrole-2,5-dione acetate]
Moisture Sorption at 25° (Relative humidity 45 %): 0.4 | Moisture Sorption at 25° (Relative humidity 55 %): 0.5 | Moisture Sorption at 25° (Relative humidity 75 %): 0.6 | Moisture Sorption at 25° (Relative humidity 85 %): 0.7 | Moisture Sorption at 25° (Relative humidity 95 %): 0.6 | XRPD pattern after DVS (after DVS moisture sorption at 25°): no change | maximum water uptake (at 80% r.h.): 0.7%
